Some test systems named below: SNB-78; DMS-273; KM-20L2; M19-MEL; XF498; LXFL 529; DMS-114; HOP-18; RXF 631.
Assay in all cases: inhibition of tumour cell growth, NCI panel, 48 h

Structures are written as SMILES. Counter-ions that a name gives are not always drawn.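 All cell lines were grown in 96-well plates and treated with compound for 48 hours. GI50: concentration for 50% inhibition of growth.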 The source made the active and inactive calls. Rule as the data show it: active = GI50 up to about 1.1 µM and inactive = higher.

As for `Cc1nc2c(n1CCO)C(=O)c1ccccc1C2=O`, the GI50 was 46.5 µM (inactive) in the assay on SNB-78; 20 µM (inactive) with DMS-273; 33.3 µM (inactive) with KM-20L2; 2.57 µM (inactive) in the assay on M19-MEL; 33 µM (inactive) with XF498; 36.6 µM (inactive) with LXFL 529.
For the compound `CC(=O)OCC(OC(C)=O)C(OC(C)=O)C(OC(C)=O)C(=O)CNn1c(-c2ccccc2Cl)nc2ccccc2c1=O` (configuration not stated), the GI50 in the assay on SNB-78, in the assay with DMS-273, in the assay with DMS-114, with KM-20L2, with M19-MEL and with LXFL 529 was > 100 µM (inactive) in each case.
As for `COC(=O)C1C(=O)NC2(C)CC1c1ccccc1O2` (configuration not stated), the GI50 in the assay on SNB-78, in the assay with DMS-273, in the assay on DMS-114, in the assay with M19-MEL, in the assay with XF498 and in the assay on LXFL 529 was > 100 µM (inactive) throughout.
`O=C(CC1(O)C(=O)Nc2c(Cl)cc(Cl)cc21)c1ccc(Br)cc1` (configuration not stated): the GI50 with HOP-18 was 15.7 µM (inactive); in the assay on RXF 631 it was 12.4 µM (inactive); in the assay on SNB-78, 19.1 µM (inactive); in the assay with DMS-273 it was 13.5 µM (inactive); in the assay on DMS-114, 20.6 µM (inactive); in the assay with KM-20L2 it was 16.8 µM (inactive). Further, the GI50 is 7.76 µM (inactive) in the assay on M19-MEL and > 37.9 µM (inactive) in the assay with LXFL 529.
As for `CC1CC2(CCC1OCc1ccccc1)OCCO2` (configuration not stated), the GI50 in the assay on SNB-78, in the assay on DMS-273, in the assay on DMS-114, with M19-MEL, with XF498 and with LXFL 529 was > 100 µM (inactive) each time.
Regarding `CC(=O)O[C@H]1CCC2[C@@H]3CCC4Nc5[nH]ncc5C[C@]4(C)C3CC[C@@]21C` (some centres not stated), the GI50 is > 100 µM (inactive) in the assay on HOP-18; > 100 µM (inactive) with RXF 631; 50.7 µM (inactive) in the assay on DMS-273; 35.8 µM (inactive) in the assay on DMS-114; 28.1 µM (inactive) with KM-20L2; 32.7 µM (inactive) with M19-MEL. For the same compound, the GI50 in the assay with XF498 is 26.2 µM (inactive); in the assay with LXFL 529, 28.5 µM (inactive).
As to `CNC(=O)NCCCCC(NC(C)=O)C(=O)NCc1ccccc1` (configuration not stated), the GI50 with RXF 631, in the assay on SNB-78, in the assay with DMS-273, with DMS-114, with KM-20L2 and with M19-MEL was > 100 µM (inactive) in each case. Also, the GI50 in the assay on XF498 and in the assay on LXFL 529 was > 100 µM (inactive) throughout.
Turning to `COc1cc([C@H]2c3[nH]c4ccccc4c3C[C@H]3COC(=O)N32)cc(OC)c1O`, the GI50 was 64.3 µM (inactive) in the assay with HOP-18; 2.3 µM (inactive) in the assay on SNB-78; 0.0163 µM (active) in the assay with DMS-273; 0.04 µM (active) in the assay on KM-20L2; 0.0671 µM (active) with XF498.
`COc1cc2c(cc1OC)C(C(CO)CO)N(CC(O)CCl)CC2` (configuration not stated): the GI50 in the assay with RXF 631, in the assay with SNB-78, in the assay on DMS-273, with KM-20L2, in the assay on M19-MEL and in the assay with XF498 was > 100 µM (inactive) each time. Besides, the GI50 in the assay with LXFL 529 is > 100 µM (inactive).
Consider `CC(=O)CC(=O)OC1CC(C)CCC1C(C)C` (configuration not stated), for which the GI50 in the assay on RXF 631 was > 100 µM (inactive); in the assay with SNB-78, > 100 µM (inactive); in the assay on DMS-273, 41.9 µM (inactive); in the assay with DMS-114, 37.2 µM (inactive); in the assay on M19-MEL, 34.6 µM (inactive); in the assay with XF498, > 100 µM (inactive). Also, the GI50 with LXFL 529 was 89.5 µM (inactive).
On to `Cc1[nH]c2ccccc2c1C(=O)CC1(O)C(=O)Nc2ccccc21` (configuration not stated), for which the GI50 in the assay with RXF 631 is > 100 µM (inactive); with SNB-78, 61 µM (inactive); in the assay on DMS-273, > 100 µM (inactive); in the assay with KM-20L2 it was > 100 µM (inactive); in the assay on M19-MEL, > 100 µM (inactive); with LXFL 529 it was > 100 µM (inactive).
Consider `CCOC(=O)CC(C)C1(C=O)CCCCC1=O` (configuration not stated), for which the GI50 with HOP-18 is > 100 µM (inactive); with RXF 631 it was > 100 µM (inactive); with SNB-78, > 100 µM (inactive); in the assay on DMS-273, 21.1 µM (inactive); in the assay with DMS-114 it was 23 µM (inactive); in the assay with KM-20L2, > 100 µM (inactive). Also, the GI50 with M19-MEL, in the assay with XF498 and in the assay on LXFL 529 was > 100 µM (inactive) each time.
Regarding `C[n+]1cc(C(O)c2ccc3c(c2)OCO3)c2ccccc2c1` (configuration not stated), the GI50 was 40.8 µM (inactive) in the assay with RXF 631; 28.6 µM (inactive) with SNB-78; 31.2 µM (inactive) in the assay on DMS-273; 21.9 µM (inactive) with DMS-114; 45.5 µM (inactive) in the assay on KM-20L2; 40.6 µM (inactive) with M19-MEL.
On to `N#C/C(=C1\N=NC(N)=C(c2ccc(Cl)cc2)C1=O)c1ccc(Cl)cc1`, for which the GI50 with HOP-18, in the assay with SNB-78, in the assay with DMS-273, in the assay with DMS-114, in the assay with KM-20L2 and in the assay on M19-MEL was > 100 µM (inactive) throughout. The GI50 with XF498 and with LXFL 529 was > 100 µM (inactive) each time.
Take `COc1ccc2c(c1)CCC1C3(CCCC21C)OCCO3` (configuration not stated): the GI50 is 23.1 µM (inactive) in the assay on HOP-18; 23.9 µM (inactive) in the assay on RXF 631; 19.4 µM (inactive) in the assay with SNB-78; 17.5 µM (inactive) with DMS-273; 19.7 µM (inactive) in the assay with KM-20L2; 18.6 µM (inactive) with M19-MEL. In the assay on LXFL 529, the GI50 is 18.2 µM (inactive).
As for `COc1cc2c(cc1O)CCN[C@@]21CS[C@H]2c3c(OC(C)=O)c(C)c4c(c3C(COC1=O)N1C2C2c3c(cc(C)c(OC)c3O)CC([C@@H]1O)N2C)OCO4` (some centres not stated), the GI50 in the assay on RXF 631, with DMS-273, with DMS-114, with KM-20L2, in the assay on M19-MEL and in the assay on XF498 was < 1e-06 µM (active) in each case. Further, in the assay on LXFL 529, the GI50 is < 1e-06 µM (active).
In the case of `COc1ccc(C(C#N)NNC(=O)c2ccccc2O)cc1OC` (configuration not stated), the GI50 was 10 µM (inactive) with HOP-18; 0.685 µM (active) in the assay on SNB-78; 0.364 µM (active) in the assay on DMS-273; 0.573 µM (active) with DMS-114; 22 µM (inactive) in the assay on KM-20L2; 6.92 µM (inactive) in the assay on M19-MEL. The GI50 with LXFL 529 is 0.526 µM (active).
Take `COc1ccc(CN2C(=O)[C@@H]3Cc4c(OC)c(C)c(OC)c(OC)c4[C@H](/C2=C\c2cc(OC)c(OC)c(C)c2OC)N3C(=O)OC(C)C)cc1`: the GI50 in the assay with HOP-18 was > 100 µM (inactive); with RXF 631, > 100 µM (inactive); in the assay on DMS-273, 19.3 µM (inactive); in the assay with DMS-114, 7.38 µM (inactive); in the assay on KM-20L2, > 100 µM (inactive); in the assay with M19-MEL, 42.7 µM (inactive). For the same compound, the GI50 in the assay with LXFL 529 was 7.24 µM (inactive).
With `CCOC(=O)C1=C(C)CC2C(=O)OC(=O)C2C1(C)C` (configuration not stated), the GI50 with HOP-18, with DMS-114, in the assay with M19-MEL and in the assay on LXFL 529 was > 100 µM (inactive) in each case.
With `Nc1ncnc2c1ncn2C1CC(O)C(CO)O1` (configuration not stated), the GI50 with SNB-78, in the assay with DMS-273, in the assay on DMS-114, in the assay on KM-20L2, in the assay on M19-MEL and with LXFL 529 was > 100 µM (inactive) each time.
For `Cc1cccc2[s+]snc12`, the GI50 in the assay on HOP-18 is > 100 µM (inactive); in the assay on RXF 631, 19.7 µM (inactive); in the assay on SNB-78, > 100 µM (inactive); in the assay with DMS-273 it was > 100 µM (inactive); in the assay with DMS-114, > 58.5 µM (inactive); in the assay with KM-20L2 it was > 100 µM (inactive). In addition, the GI50 in the assay on M19-MEL was > 60.3 µM (inactive); in the assay with XF498, > 100 µM (inactive); in the assay with LXFL 529 it was 36.1 µM (inactive).
On to `CC(NC(C)(C)C)C(=O)c1cccc(Cl)c1` (configuration not stated) [BUPROPION HYDROCHLORIDE], for which the GI50 in the assay with RXF 631, in the assay with DMS-273, with DMS-114, with KM-20L2, with M19-MEL and with XF498 was > 100 µM (inactive) in each case. For the same compound, the GI50 in the assay on LXFL 529 is > 100 µM (inactive).
For the compound `Nc1ccc(C(=O)CC2(O)C(=O)Nc3ccccc32)cc1` (configuration not stated), the GI50 with SNB-78, in the assay with DMS-273, with DMS-114, with KM-20L2, with M19-MEL and in the assay with XF498 was > 100 µM (inactive) in each case. Also, the GI50 in the assay on LXFL 529 is > 100 µM (inactive).
With `CSc1nc(Cl)c(Br)c(Sc2nc(N)nc3nc[nH]c23)n1`, the GI50 was 3.14 µM (inactive) in the assay with DMS-273; 4.74 µM (inactive) in the assay with DMS-114; 5.9 µM (inactive) in the assay with KM-20L2; 7.45 µM (inactive) in the assay on M19-MEL; 15.8 µM (inactive) with XF498; 5.79 µM (inactive) in the assay on LXFL 529.
As to `C[Si](C)(C)c1ccc(-c2sc(-c3ccc([Si](C)(C)C)s3)c3c2C[Si]2(C3)Cc3c(-c4ccc([Si](C)(C)C)s4)sc(-c4ccc([Si](C)(C)C)s4)c3C2)s1`, the GI50 in the assay on RXF 631, with SNB-78, in the assay on DMS-273, in the assay with KM-20L2, in the assay on M19-MEL and in the assay with XF498 was > 100 µM (inactive) each time. For the same compound, in the assay on LXFL 529, the GI50 was > 100 µM (inactive).
As for `CCOC(=O)N1CCN(P(=O)(Nc2ccc3[nH]c(NC(=O)OC)nc3c2)Oc2ccccc2)CC1` (configuration not stated), the GI50 with HOP-18 was 87.9 µM (inactive); in the assay on SNB-78 it was > 100 µM (inactive); in the assay with DMS-273, > 100 µM (inactive); in the assay with DMS-114, > 100 µM (inactive); in the assay with KM-20L2 it was > 100 µM (inactive); in the assay with M19-MEL, > 100 µM (inactive). Further, in the assay on LXFL 529, the GI50 was > 100 µM (inactive).
